ChEMBL document CHEMBL1125506, “Fluoronaphthyridines as antibacterial agents. 6. Synthesis and structure-activity relationships of new chiral 7-(1-, 3-, 4-, and 6-methyl-2,5-diazabicyclo[2.2.1]heptan-2-yl)naphthyridine analogues of 7-[(1R,4R)-2,5- diazabicyclo[2.2.1]heptan-2-yl]-1-(1,1-dimethylethyl)-6-fluoro-1,4-dihy …” (J Med Chem, 1992)
Converted amounts (≈) assume the structure as drawn.

Columns and labels:
[1] = system: Mus musculus; assay: In vivo efficacy on systemic infections caused by Streptococcus pneumoniae A9585 in mice after peroral administration; type: functional; details: po, read-out: PD50
[2] = Solubility (water, 22C, pH 7.2); type: physicochemical; details: read-out: S
[3] = system: Enterococcus faecalis; assay: In vitro antibacterial activity against Enterococcus faecalis A9809; type: functional
[4] = system: Mus musculus; assay: In vivo efficacy on systemic infections caused by Staphylococcus aureus A15090 in mice after intramuscular administration; type: functional; details: im, read-out: PD50
[5] = Partition coefficient (logD); type: physicochemical; details: octanol/water
[6] = system: Klebsiella pneumoniae; assay: In vitro antibacterial activity against Klebsiella pneumoniae A9664; type: functional
[7] = system: Enterobacter cloacae; assay: In vitro antibacterial activity against Enterobacter cloacae A9656; type: functional
[8] = system: Bacteroides fragilis; assay: In vitro antibacterial activity against Bacteroides fragilis A-22,862; type: functional
[9] = system: Streptococcus pneumoniae; assay: In vitro antibacterial activity against Streptococcus pneumoniae A9585.; type: functional
[10] = system: Staphylococcus aureus; assay: In vitro antibacterial activity against Staphylococcus aureus A9537; type: functional
[11] = system: Escherichia coli; assay: In vitro antibacterial activity against Escherichia coli A15119; type: functional
[12] = system: Morganella morganii; assay: In vitro antibacterial activity against Morganella morganii A15153; type: functional
[13] = system: Mus musculus; assay: In vivo efficacy on systemic infections caused by Pseudomonas aeruginosa A9843 after peroarl administration in mice; type: functional; details: read-out: PD50
[14] = system: Proteus mirabilis; assay: In vitro antibacterial activity against Proteus mirabilis A9900; type: functional
[15] = system: Pseudomonas aeruginosa; assay: In vitro antibacterial activity against Pseudomonas aeruginosa A9843; type: functional
[16] = system: Mus musculus; assay: In vivo efficacy on systemic infections caused by Streptococcus pneumoniae A9585 in mice after intramuscular administration; type: functional; details: im, read-out: PD50
[17] = system: Mus musculus; assay: In vivo efficacy on systemic infections caused by Pseudomonas aeruginosa A9843 in mice after intramuscular administration; type: functional; details: im, read-out: PD50
[18] = system: Mus musculus; assay: In vivo efficacy on systemic infections caused by Staphylococcus aureus A15090 in mice after peroral administration; type: functional; details: po, read-out: PD50
[19] = system: Serratia marcescens; assay: In vitro antibacterial activity against Serratia marcescens A20019; type: functional
[20] = system: Mus musculus; assay: In vivo efficacy on systemic infections caused by Pseudomonas aeruginosa A9843 in mice after peroral administration; type: functional; details: po, read-out: PD50
[21] = system: Mus musculus; assay: percent urinary recovery in 24 hr after intravenous administration to mice; type: functional, Urine
[22] = Peak concentration in blood after peroral administration to mice; type: ADME, organism-based; set-up: route oral; details: mouse, po
[23] = system: Mus musculus; assay: In vivo efficacy on systemic infections caused by Escherichia coli A15119 in mice after peroral administration; type: functional; details: po, read-out: PD50
[24] = Percent urinary recovery in 24 hr after peroral administration to mice; type: ADME, organism-based; details: mouse, urine, po; read-out: UR
[25] = Peak concentration in blood after intravenous administration to mice; type: ADME, organism-based; set-up: route intravenous; details: mouse
[26] = system: Mus musculus; assay: In vivo efficacy on systemic infections caused by Escherichia coli A15119 in mice after intramuscular administration; type: functional; details: im, read-out: PD50

Row | SMILES | ED50 [1] | MIC [3] | ED50 [4] | MIC [6] | MIC [8] | MIC [9] | MIC [10] | MIC [12] | MIC [14] | ED50 [16] | ED50 [17] | ED50 [18] | MIC [19] | other results
1 | C[C@@H]1N[C@@H]2C[C@H]1N(c1nc3c(cc1F)c(=O)c(C(=O)O)cn3-c1ccc(F)cc1F)C2.Cl | > 50 mg/kg | 1 µg/mL | 1 mg/kg | 0.13 µg/mL | 4 µg/mL | 1 µg/mL | 0.06 µg/mL | 0.5 µg/mL | 0.5 µg/mL | > 50 mg/kg | 2.4 mg/kg | 1.4 mg/kg | 0.25 µg/mL | solubility [2]: 15 µg/mL; logD [5]: -0.14; MIC [7]: 0.13 µg/mL; MIC [11]: 0.03 µg/mL; ED50 [13]: 3.1 mg/kg; MIC [15]: 1 µg/mL
2 | O=C(O)c1cn(C2CC2)c2cc(N3CCNCC3)c(F)cc2c1=O [CIPROFLOXACIN] | > 50 mg/kg | 0.5 µg/mL (≈ 1.51 µM) | 3.9 mg/kg | 0.06 µg/mL (≈ 0.181 µM) | 1 µg/mL (≈ 3.02 µM) | 0.25 µg/mL (≈ 0.754 µM) | 0.06 µg/mL (≈ 0.181 µM) | 0.008 µg/mL (≈ 0.0241 µM) | 0.008 µg/mL (≈ 0.0241 µM) | 28.7 mg/kg | 1.3 mg/kg | 12.5 mg/kg | 0.03 µg/mL (≈ 0.0905 µM) | ED50 [20]: 2.6 mg/kg; UR [21]: 25%; Cmax [22]: 6000 ng/mL; ED50 [23]: 1.4 mg/kg; dose excreted at 24 h [24]: 30%; Cmax [25]: 22000 ng/mL; ED50 [26]: 0.05 mg/kg
